Earlier results as cited in patent US20250352523A1, “TRIPLE PHARMACEUTICAL COMPOSITION FOR PROTEINACEOUS INFECTION” (priority 2024, published 2025).

Assays:
AD = conditions: in vivo
patients with AD = conditions: human, in vivo
AD patients = conditions: twelve months' treatment, versus placebo

CC(=O)Nc1ccc(O)cc1 [Acetaminophen]
beneficial effects on AD (AD): not found to have beneficial effects

COc1ccc2cc([C@H](C)C(=O)O)ccc2c1 [Naproxen]
cognitive function in patients with AD (patients with AD): did not improve cognitive function

CC(=O)Oc1ccccc1C(=O)O [aspirin]
beneficial effects on AD (AD): not found to have beneficial effects

CO[C@H]1/C=C/O[C@@]2(C)Oc3c(C)c(O)c4c(O)c(c(/C=N/N5CCN(C)CC5)c(O)c4c3C2=O)NC(=O)/C(C)=C\C=C\[C@H](C)[C@H](O)[C@@H](C)[C@@H](O)[C@@H](C)[C@H](OC(C)=O)[C@@H]1C [rifampin]
effects on cognition or function in AD (AD patients): no beneficial effects
